Drawing on patent US12466829B2, “Spirocyclic piperidine melanocortin subtype-2 receptor (MC2R) antagonists and uses thereof” (Crinetics Pharmaceuticals, Inc., priority 2019, dated 2025), this text covers Ki for 24 compounds.

The structures appear in SMILES notation. pKi: −log10 of the molar value.

T1 sequence (Q01718 whole entry): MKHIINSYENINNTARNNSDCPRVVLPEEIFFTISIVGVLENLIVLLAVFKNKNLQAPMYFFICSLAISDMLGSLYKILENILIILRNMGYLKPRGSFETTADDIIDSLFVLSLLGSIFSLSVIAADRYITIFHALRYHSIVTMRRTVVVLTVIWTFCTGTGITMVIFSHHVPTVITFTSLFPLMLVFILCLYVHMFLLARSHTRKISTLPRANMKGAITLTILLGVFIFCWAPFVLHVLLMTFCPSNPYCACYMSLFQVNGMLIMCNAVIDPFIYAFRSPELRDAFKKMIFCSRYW
T1 sequence (Q8TCY5 whole entry partner): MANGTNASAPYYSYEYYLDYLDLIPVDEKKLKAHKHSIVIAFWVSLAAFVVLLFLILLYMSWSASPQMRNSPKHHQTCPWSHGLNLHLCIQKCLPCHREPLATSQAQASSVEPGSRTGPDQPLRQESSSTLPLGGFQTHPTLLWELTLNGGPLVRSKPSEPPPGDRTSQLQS

The test has as its target T1, hMC2 receptor (Homo sapiens, UniProt Q01718).
T1 construct: host or cells: CRE-bla-CHO-K1 cells
The test can be described thus: hMC2 membrane binding assay ([125I]ACTH (1-39) Tyr23, SPA). The note with it: crude membranes of CRE-bla-CHO-K1 cells expressing hMC2 receptor and hMRAP; 0.2 nM [125I]ACTH (1-39) Tyr23; 1.5 hours at room temperature; read-out: MC2R binding potency. On the procedure: Crude membrane fractions are prepared from CRE-bla-CHO-K1 cells stably expressing hMC2 receptor and hMRAP accessory protein (Thermo Fisher). The cells are grown to 85-100% confluence on standard tissue culture dishes in GlutaMax DMEM growth media (Gibco) with following additives: 10% dialyzed FBS (Gemini), 0.1 mM NEAA (Gibco), 25 mM HEPES (Gibco), 5 μg/mL blasticidin (Goldbio), 100 μg/mL zeocin (Invitrogen), 600 μg/mL hygromycin (Goldbio). To prepare membranes, cells are scraped and collected in 1× Dulbecco's phosphate buffered saline (Corning) and then pelleted at 1000 RPM's. The cell pellet is reconstituted in membrane preparation buffer (20 mM HEPES, 6 mM MgCl2 and 1 mM EGTA, protease inhibitor tablets (Pierce) adjusted to pH 7.4), homogenized using a dounce homogenizer, and the resulting membrane fraction is pelleted by centrifugation at 12,000 RPM's. The membrane pellet is resuspended in membrane preparation buffer, snap freezed and stored at −80° C. for later use.
The hMC2 membrane binding assay utilizes the following components: radiolabel [^125I]ACTH (1-39) Tyr23 (PerkinElmer), wheatgerm agglutinin coated PVT SPA beads (PerkinElmer), crude hMC2R membranes, and compounds. Briefly hMC2R membranes are incubated with SPA beads in binding assay buffer (50 mM HEPES, 5 mM MgCl2, 1 mM CaCl2), 0.2% BSA, protease inhibitor tablets (Pierce) adjusted to pH7.4) prior to assay initiation. […] Assay plates are read using a Top Count NXT and Ki values for compounds are determined using a GraphPad Prism 6 non-linear regression analysis.
Consider `CCOc1ncccc1-c1ccc2c(c1)N(C(=O)[C@@H]1CCNC1)CC21CCN(c2ccc(C(F)(F)F)cc2C#N)CC1` [1-9, 2-[6-(2-ethoxypyridin-3-yl)-1-[(3R)-pyrrolidine-3-carbonyl]-1,2-dihydrospiro[indole-3,4′-piperidin]-1′-yl]-5-(trifluoromethyl)benzonitrile], for which the pKi was 7.00 to 8.00. Then `CCOc1ncccc1-c1ccc2c(n1)N(C(=O)[C@@H](C)N)CC21CCN(c2ccc(C(F)(F)F)cc2C#N)CC1` [1-47, 2-{1′-[(2R)-2-aminopropanoyl]-6′-(2-ethoxypyridin-3-yl)-1′,2′-dihydrospiro[piperidine-4,3′-pyrrolo[2,3-b]pyridin]-1-yl}-5-(trifluoromethyl)benzonitrile], with 7.00 to 8.00; and `CCOc1ncccc1-c1ccc2c(c1)N(C(=O)NC[C@@H](C)N)CC21CCN(c2ccc(C(F)(F)F)cc2C#N)CC1` [1-30, N-[(2R)-2-aminopropyl]-1′-[2-cyano-4-(trifluoromethyl)phenyl]-6-(2-ethoxypyridin-3-yl)-1,2-dihydrospiro[indole-3,4′-piperidine]-1-carboxamide], with 7.00 to 8.00; and `CCOc1ncccc1-c1ccc2c(n1)N(C(=O)N[C@@H]1CCNC1)CC21CCN(c2ccc(C(F)(F)F)cc2C#N)CC1` [1-57, 1-[2-cyano-4-(trifluoromethyl)phenyl]-6′-(2-ethoxypyridin-3-yl)-N-[(3R)-pyrrolidin-3-yl]-1′,2′-dihydrospiro[piperidine-4,3′-pyrrolo[2,3-b]pyridine]-1′-carboxamide], with 7.00 to 8.00.

Turning to `CCOc1ncccc1-c1ccc2c(n1)N(C(=O)CCN(C)C)CC21CCN(c2ccc(C(F)(F)F)cc2C#N)CC1` [1-58, 2-{1′-[3-(dimethylamino)propanoyl]-6′-(2-ethoxypyridin-3-yl)-1′,2′-dihydrospiro[piperidine-4,3′-pyrrolo[2,3-b]pyridin]-1-yl}-5-(trifluoromethyl)benzonitrile], the pKi is over 8.00. As for `CCOc1ncccc1-c1ccc2c(c1)N(CCN)C(=O)C21CCN(c2ccc(C(F)(F)F)cc2C#N)CC1` [1-16, 2-[1-(2-aminoethyl)-6-(2-ethoxypyridin-3-yl)-2-oxo-1,2-dihydrospiro[indole-3,4′-piperidin]-1′-yl]-5-(trifluoromethyl)benzonitrile], the pKi was over 8.00. With `CCOc1ncccc1-c1ccc2c(n1)N(C(=O)[C@H](C)N)CC21CCN(c2ccc(C(F)(F)F)cc2C#N)CC1` [1-48, 2-{1′-[(2S)-2-aminopropanoyl]-6′-(2-ethoxypyridin-3-yl)-1′,2′-dihydrospiro[piperidine-4,3′-pyrrolo[2,3-b]pyridin]-1-yl}-5-(trifluoromethyl)benzonitrile], the pKi is over 8.00. As for `CCOc1ncccc1-c1ccc2c(n1)N(C(=O)NCCN)CC21CCN(c2ccc(C(F)(F)F)cc2C#N)CC1` [1-55, N-(2-aminoethyl)-1-[2-cyano-4-(trifluoromethyl)phenyl]-6′-(2-ethoxypyridin-3-yl)-1′,2′-dihydrospiro[piperidine-4,3′-pyrrolo[2,3-b]pyridine]-1′-carboxamide], the pKi was over 8.00.

For the compound `CCOc1ncccc1-c1ccc2c(c1)N(C(=O)CCN)CC21CCN(c2cc(C#N)cc(C(F)(F)F)c2)CC1` [1-8, 3-[1-(3-aminopropanoyl)-6-(2-ethoxypyridin-3-yl)-1,2-dihydrospiro[indole-3,4′-piperidin]-1′-yl]-5-(trifluoromethyl)benzonitrile], the pKi is 5.00 to 6.00. Then `CCOc1ncccc1-c1ccc2c(n1)N(CCNC)C(=O)C21CCN(c2ccc(C(F)(F)F)cc2C#N)CC1` [1-63, 2-[6′-(2-ethoxypyridin-3-yl)-1′-[2-(methylamino)ethyl]-2′-oxo-1′,2′-dihydrospiro[piperidine-4,3′-pyrrolo[2,3-b]pyridin]-1-yl]-5-(trifluoromethyl)benzonitrile], with over 8.00; and `CCOc1ncccc1-c1ccc2c(c1)N(C(=O)CCN)C(C)C21CCN(c2ccc(C(F)(F)F)cc2C#N)CC1` (stereo not drawn) [1-26, 2-[1-(3-aminopropanoyl)-6-(2-ethoxypyridin-3-yl)-2-methyl-1,2-dihydrospiro[indole-3,4′-piperidin]-1′-yl]-5-(trifluoromethyl)benzonitrile], with 7.00 to 8.00. Turning to `CCOc1ncccc1-c1ccc2c(c1)N(C(=O)CCN)CC21CCN(c2cc(C#N)cc(C(F)(F)F)n2)CC1` [1-19, 2-[1-(3-aminopropanoyl)-6-(2-ethoxypyridin-3-yl)-1,2-dihydrospiro[indole-3,4′-piperidin]-1′-yl]-6-(trifluoromethyl)pyridine-4-carbonitrile], the pKi is 5.00 to 6.00. Regarding `CCOc1ncccc1-c1ccc2c(c1)N(C[C@@H](C)N)C(=O)CC21CCN(c2ccc(C(F)(F)F)cc2C#N)CC1` [1-70, 2-{1′-[(2R)-2-aminopropyl]-7′-(2-ethoxypyridin-3-yl)-2′-oxo-2′,3′-dihydro-1′H-spiro[piperidine-4,4′-quinolin]-1-yl}-5-(trifluoromethyl)benzonitrile], the pKi is 7.00 to 8.00. Turning to `CCOc1ncccc1-c1ccc2c(c1)N(C[C@H](C)N)C(=O)CC21CCN(c2ccc(C(F)(F)F)cc2C#N)CC1` [1-68, 2-{1′-[(2S)-2-aminopropyl]-7′-(2-ethoxypyridin-3-yl)-2′-oxo-2′,3′-dihydro-1′H-spiro[piperidine-4,4′-quinolin]-1-yl}-5-(trifluoromethyl)benzonitrile], the pKi is 7.00 to 8.00. As for `CCOc1ncccc1-c1ccc2c(c1)N([C@@H]1CCN(C)C1)C(=O)C21CCN(c2ccc(C(F)(F)F)cc2C#N)CC1` [1-21, 2-[6-(2-ethoxypyridin-3-yl)-1-[(3R)-1-methylpyrrolidin-3-yl]-2-oxo-1,2-dihydrospiro[indole-3,4′-piperidin]-1′-yl]-5-(trifluoromethyl)benzonitrile], the pKi was 7.00 to 8.00. Turning to `CCOc1ccc(N2CCC3(CC2)CN(C(=O)CCN)c2cc(-c4cccnc4OCC)ccc23)c(C(F)(F)F)n1` [1-23, 3-amino-1-{1′-[6-ethoxy-2-(trifluoromethyl)pyridin-3-yl]-6-(2-ethoxypyridin-3-yl)-1,2-dihydrospiro[indole-3,4′-piperidin]-1-yl}propan-1-one], the pKi is 7.00 to 8.00. Take `CCOc1ncccc1-c1ccc2c(n1)N(CCN)CC21CCN(c2ccc(C(F)(F)F)cc2C#N)CC1` [1-29, 2-[1′-(2-aminoethyl)-6′-(2-ethoxypyridin-3-yl)-1′,2′-dihydrospiro[piperidine-4,3′-pyrrolo[2,3-b]pyridin]-1-yl]-5-(trifluoromethyl)benzonitrile]: the pKi is over 8.00. Next, `CCOc1ncccc1-c1ccc2c(c1)N(CCNC)C(=O)CC21CCN(c2ccc(C(F)(F)F)cc2C#N)CC1` [1-69, 2-[7′-(2-ethoxypyridin-3-yl)-1′-[2-(methylamino)ethyl]-2′-oxo-2′,3′-dihydro-1′H-spiro[piperidine-4,4′-quinolin]-1-yl]-5-(trifluoromethyl)benzonitrile]: 7.00 to 8.00; `CCOc1ncccc1-c1ccc2c(c1)N(CCNC)C(=O)NC21CCN(c2ccc(C(F)(F)F)cc2C#N)CC1` [1-65, 2-[7′-(2-ethoxypyridin-3-yl)-1′-[2-(methylamino)ethyl]-2′-oxo-2′,3′-dihydro-1′H-spiro[piperidine-4,4′-quinazolin]-1-yl]-5-(trifluoromethyl)benzonitrile]: over 8.00. With `CCOc1ncccc1-c1ccc2c(n1)N(C[C@H](N)CO)CC21CCN(c2ccc(C(F)(F)F)cc2C#N)CC1` [1-51, 2-{1′-[(2S)-2-amino-3-hydroxypropyl]-6′-(2-ethoxypyridin-3-yl)-1′,2′-dihydrospiro[piperidine-4,3′-pyrrolo[2,3-b]pyridin]-1-yl}-5-(trifluoromethyl)benzonitrile], the pKi was over 8.00. As for `CCOc1ncccc1-c1ccc2c(c1)N(C(=O)C[C@@H](C)N)CC21CCN(c2ccc(C(F)(F)F)cc2C#N)CC1` [1-6, 2-{1-[(3R)-3-aminobutanoyl]-6-(2-ethoxypyridin-3-yl)-1,2-dihydrospiro[indole-3,4′-piperidin]-1′-yl}-5-(trifluoromethyl)benzonitrile], the pKi was 7.00 to 8.00.

For the compound `CCOc1ncccc1-c1ccc2c(c1)N(C(=O)N[C@H]1CCNC1)CC21CCN(c2ccc(C(F)(F)F)cc2C#N)CC1` [1-33, 1′-[2-cyano-4-(trifluoromethyl)phenyl]-6-(2-ethoxypyridin-3-yl)-N-[(3S)-pyrrolidin-3-yl]-1,2-dihydrospiro[indole-3,4′-piperidine]-1-carboxamide], the pKi is 7.00 to 8.00. For the compound `CCOc1ncccc1-c1ccc2c(c1)N(C[C@@H]1CCN1)CC21CCN(c2ccc(C(F)(F)F)cc2C#N)CC1` [1-39, 2-(1-{[(2S)-azetidin-2-yl]methyl}-6-(2-ethoxypyridin-3-yl)-1,2-dihydrospiro[indole-3,4′-piperidin]-1′-yl)-5-(trifluoromethyl)benzonitrile], the pKi is 7.00 to 8.00. Turning to `CCOc1ncccc1-c1ccc2c(n1)N(C(=O)[C@@H]1CCNC1)CC21CCN(c2ccc(C(F)(F)F)cc2C#N)CC1` [1-49, 2-[6′-(2-ethoxypyridin-3-yl)-1′-[(3R)-pyrrolidine-3-carbonyl]-1′,2′-dihydrospiro[piperidine-4,3′-pyrrolo[2,3-b]pyridin]-1-yl]-5-(trifluoromethyl)benzonitrile], the pKi was over 8.00.
